Source: patent US20170112866A1, “ANTI-TUMOR AGENT CONTAINING TAXANE COMPOUND, AND ANTI-TUMOR EFFECT ENHANCER” (Taiho Pharmaceutical Company Limited, priority 2014, published 2017)

Experiments:
[1] = tested on: human gastric cancer cell line (SC-2); test: Anti-tumor effect on SC-2 transplanted to nude mice (RTV, IR); assay type: in vivo; conditions: Day 29, tail vein, Day 1 and Day 8
Description: The FTD•TPI combination drug (a mixture of FTD and TPI at a molar ratio of 1:0.5) was prepared for administration at a dose of 150 mg/kg/day in terms of FTD. Paclitaxel (TXL, Wako Pure Chemical Industries, Ltd.) was prepared for administration at doses of 5 and 20 mg/kg/day. The FTD•TPI combination drug was orally administered on Days 1 to 14 consecutively, and paclitaxel was administered through the tail vein on Day 1 and Day 8. In the combination administration groups, the doses and administration schedules of the FTD•TPI combination drug and paclitaxel were the same as those of the corresponding monotherapy groups.
As an index of the anti-tumor effect, the TVs on Days 3, 7, 12, 15, 19, 22, 26, and 29 were calculated in each group. In accordance with the following equation, the relative tumor volume (RTV) to that on Day 0 was calculated and compared with the RTV of the untreated group (control).
TV (mm^3)=(long diameter×short diameter^2)/2
RTV=(TV on Day 29)/(TV on Day 0)
The RTVs were plotted on the indicated measurement days, and RTV changes over days in the control group, the FTD•TPI combination drug administration group, the paclitaxel administration group, and the combination administration group of the FTD•TPI combination drug and paclitaxel were compared.
The tumor growth inhibition rate (IR) on Day 29 on the basis of RTV values was calculated in accordance with the following equation.
IR (%)=[1−(mean RTV value of treated group)/(mean RTV value of control group)]×100

[2] = Paclitaxel dose finding in SC-2-bearing mice (Reference Example 2); conditions: doses 10, 20, 30 mg/kg/day on Days 1 and 8 tested
Description: (§1) A human gastric cancer cell line (SC-2) was transplanted to the right chest of 5 to 6-week-old BALB/cA Jcl-nu mice. After the tumor transplantation, the long diameter (mm) and the short diameter (mm) of the tumor were measured, and the tumor volume (TV) was calculated. […] Paclitaxel was administered at doses of 10, 20, and 30 mg/kg/day on Days 1 and 8.

[3] = mouse, in vivo
Description: as §1

In the case of CC(=O)O[C@H]1C(=O)[C@@]2(C)[C@H]([C@H](OC(=O)c3ccccc3)[C@]3(O)C[C@H](OC(=O)[C@H](O)[C@@H](NC(=O)c4ccccc4)c4ccccc4)C(C)=C1C3(C)C)[C@]1(OC(C)=O)CO[C@@H]1C[C@@H]2O [Paclitaxel (TXL), (−)-(1S,2S,3R,4S,5R,7S,8S,10R,13S)-4,10-diacetoxy-2-benzoyloxy-5,20-epoxy-1,7-dihydroxy-9-oxotax-11-en-13-yl(2R,3S)-3-benzoylamino-2-hydroxy-3-phenylpropionate], the “IR (tumor growth inhibition rate)” value ([1]; paclitaxel 5 mg/kg/day) is reported as 27.1%, the “RTV (mean ± SD)” value ([1]; paclitaxel 5 mg/kg/day) is reported as 44.97 ± 1.78 and the “IR (tumor growth inhibition rate)” value ([1]; paclitaxel 20 mg/kg/day) is reported as 83.6%. The “RTV (mean ± SD)” value ([1]; paclitaxel 20 mg/kg/day) was 10.13 ± 2.94, the “recommended dose for mice” value [2] was 20 mg/kg/day and the mice deceased [3] was “four of the six mice deceased”.
